Results: patent US9353150B2, “Substituted pyrazino[1′,2′:1 ,5]pyrrolo[2,3-b]-indole-1,4-diones for cancer treatment” (Massachusetts Institute of Technology, priority 2012, dated 2016)
Entries after “also recorded” stand apart in the source; their conditions may differ. Where two headings read alike, the source gives them in different places.

Experiments:
[1] = system: HeLa (cervical carcinoma); test: 72-hour IC50 determination for adherent cells using sulforhodamine B (SRB); format: cell-based, human; conditions: 72-hour exposure
Summary of the method: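 HeLa cells were seeded at 5,000 cells/well in RPMI-1640 with 10% FBS and exposed continuously for 72 hours to compounds on a half-log scale (1% DMSO final, triplicate). Cells were then TCA-fixed, stained with sulforhodamine B and read at 510 nm. IC50 values came from three or more independent experiments.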

[2] = system: U-937 (hystiocytic lymphoma); test: 72-hour IC50 determination for non-adherent cells using MTS; format: cell-based, human; conditions: 72-hour exposure
Summary of the method: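 U-937 cells (5,000/well) in RPMI-1640 + 10% FBS were exposed to compounds in triplicate (1% DMSO final) for 72 h at 37 °C. Viability was read by PMS/MTS absorbance at 490 nm, with DMSO wells as live and cell-free wells as dead controls. IC50 came from three or more independent experiments.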

H460 (lung carcinoma) = test: 72-hour IC50 determination for adherent cells using sulforhodamine B (SRB); format: cell-based, human; conditions: error is standard deviation of the mean, n ≧ 3, read-out: H460, 72-hour IC50 (Table E1-2)
Experimental: (§1) Certain provided compounds were tested in culture against a panel of three supplementary human cancer cell lines representing three additional tumor histologies (H460, lung carcinoma; 786-O, renal carcinoma; MCF-7, breast carcinoma). As shown in Table E1-2, the ETPs retain their potency across the cell lines. In some embodiments, a provided compound is active in all cell lines. In some embodiments, a provide compound can be used to selectively target certain cells and/or cancers. […] Without the intention to be limited, Applicant notes that certain cell lines could be more sensitive to provided compounds; for example, U-937 and HeLa are slightly more sensitive to the ETPs than the other three cell lines.
(§2) Cells were grown in media supplemented with fetal bovine serum (FBS) and antibiotics ([…]). Specifically, experiments were performed using the following cell lines and media compositions: U-937, HeLa, H460, and 786-O (RPMI-1640+10% FBS), and MCF7 (EMEM+10% FBS). Cells were incubated at 37° C. in a 5% CO2, 95% humidity atmosphere.
(§3) Adherent cells (HeLa, H460, 786-O, and MCF7) were added into 96-well plates (5,000 cells/well for HeLa cell line; 2,000 cells/well for H460, 786-O, and MCF7 cell lines) in 100 μL media and were allowed to adhere for 2-3 hours. Compounds were solubilized in DMSO as 100× stocks, added directly to the cells (100 μL final volume), and tested over a range of concentrations in triplicate (1% DMSO final) on a half-log scale. Concentrations tested ranged from […] to 10 μM, depending on the potency of the compound. DMSO and cell-free wells served as the live and dead control, respectively. After 72 hours of continuous exposure, the plates were evaluated using the SRB colorimetric assay as described previously (Vichai, V.; Kirtikara, K. Nature Prot. 2006, 1, 1112). Briefly, media was removed from the plate, and cells were fixed by the addition of 100 μL cold 10% trichloroacetic acid in water. After incubating at 4° C. for an hour, the plates were washed in water and allowed to dry. Sulforhodamine B was added as a 0.057% solution in 1% acetic acid (100 μL), and the plates were incubated at room temperature for 30 minutes, washed in 1% acetic acid, and allowed to dry. The dye was solubilized by adding 10 mM Tris base solution (pH 10.5, 200 μL) and incubating at room temperature for 30 minutes. Plates were read at λ=510 nm. IC50 values were determined from three or more independent experiments using TableCurve (San Jose, Calif.).

786-O (renal carcinoma) = test: as above; format: cell-based, human; conditions: error is standard deviation of the mean, n ≧ 3, read-out: 786-O, 72-hour IC50 (Table E1-2)
Experimental: as §1, §2, §3

MCF-7 (breast carcinoma) = test: as above; format: cell-based, human; conditions: error is standard deviation of the mean, n ≧ 3, read-out: MCF-7, 72-hour IC50 (Table E1-2)
Experimental: as §1, §2, §3

[3] = Stability observed on isolation (concentration / solution); conditions: observed during isolation and characterization
human cancer cell lines = test: Anticancer activity in human cancer cell lines, not tied to one cell line; format: cell-based; conditions: for anticancer activity, in words: human cancer cell lines, 72-hour exposure
Summary of the method: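 Cells exposed 72 h to compound on a half-log scale (1% DMSO final); adherent lines (HeLa, H460, 786-O, MCF7) read by SRB staining at 510 nm, U-937 by MTS/PMS absorbance at 490 nm. IC50 from three or more independent experiments.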

U-937 cells = test: Apoptosis in U-937 cells with Annexin V-FITC and propidium iodide (AnnV/PI), flow cytometry; format: cell-based, human; conditions: 24 hours, compounds at 100-times their 72-hour IC50
Experimental: DMSO stocks of compounds were added to a 24-well plate in singlicate (0.2% DMSO final). After compound addition, 0.5 mL of a U-937 cell suspension (250,000 cells/mL) was added and allowed to incubate for 24 hours. Following treatment, the cell suspensions were transferred to flow cytometry tubes and pelleted (500 g, 3 min). The media was removed by aspiration, and cells were re-suspended in 200 μL AnnV binding buffer (10 mM HEPES, pH 7.4, 140 mM NaCl, 2.5 mM CaCl2) with 5 μg/mL PI and 1:90 dilution of AnnV. Samples were analyzed using flow cytometry.

[4] = Solubility observed on isolation; conditions: in CH2Cl2, CHCl3, EtOAc, MeOH, DMSO
[5] = Homo sapiens, HeLa, SRB, error is standard deviation of the mean, n ≧ 3, read-out: HeLa, 72-hour IC50 (Table E1-1)
[6] = Homo sapiens, U-937, MTS, error is standard deviation of the mean, n ≧ 3, read-out: U-937, 72-hour IC50 (Table E1-1)
[7] = SRB, error is standard deviation of the mean, n ≧ 3, read-out: HeLa, 72-hour IC50 (Table E1-1)
[8] = SRB, error is standard deviation of the mean, n ≧ 3, read-out: HeLa, 72-hour IC50 (Table E1-2)
[9] = MTS, error is standard deviation of the mean, n ≧ 3, read-out: U-937, 72-hour IC50 (Table E1-1)
[10] = MTS, error is standard deviation of the mean, n ≧ 3, read-out: U-937, 72-hour IC50 (Table E1-2)

**Q.** What does the source list for `CN1C(=O)C23CC4(c5c[nH]c6ccccc56)c5ccccc5N(S(=O)(=O)c5ccccc5)[C@@H]4N2C(=O)[C@H]1SC(=S)S3` (some centres unmarked) [Compound 36, C3-(Indol-3′-yl)dithiepanethione]?
**A.** IC50 [1, 5]: 33 ± 13 nM; IC50 ([1]; Homo sapiens, HeLa, SRB, error is standard deviation of the mean, n ≧ 3, read-out: HeLa, 72-hour IC50 (Table E1-2)): 33 ± 13 nM; IC50 [2, 6]: 3.8 ± 0.9 nM; IC50 ([2]; Homo sapiens, U-937, MTS, error is standard deviation of the mean, n ≧ 3, read-out: U-937, 72-hour IC50 (Table E1-2)): 3.8 ± 0.9 nM; IC50 (H460 (lung carcinoma); Homo sapiens, NCI-H460, 72-hour exposure): 190 ± 61 nM; IC50 (786-O (renal carcinoma); Homo sapiens, 786-0, 72-hour exposure): 133 ± 10 nM; IC50 (MCF-7 (breast carcinoma); Homo sapiens, MCF7, 72-hour exposure): 163 ± 7 nM; stability upon concentration or in solution [3]: tends to degrade; anticancer activity, in words (human cancer cell lines): competent anticancer agents

**Q.** With `CN1C(=O)[C@@]23C[C@]4([C@]56C[C@@]78SS[C@@](C)(C(=O)N7[C@H]5N(S(=O)(=O)c5ccccc5)c5ccccc56)N(C)C8=O)c5ccccc5N(S(=O)(=O)c5ccccc5)[C@@H]4N2C(=O)[C@]1(C)SS3` [Compound 14, Dimeric epidithiodiketopiperazine] as the molecule, how does the IC50 [1, 7] read?
**A.** Its IC50 is 0.09 ± 0.06 nM.

**Q.** And the IC50 [1, 8]?
**A.** Its IC50 is 0.09 ± 0.06 nM.

**Q.** What about the IC50 ([1]; read-out: IC50 (HeLa)) of the same molecule?
**A.** Its IC50 is 0.09 nM.

**Q.** What about the IC50 [2, 9] of the same molecule?
**A.** Its IC50 is 0.18 ± 0.06 nM.

**Q.** And the IC50 [2, 10]?
**A.** The IC50 was 0.18 ± 0.06 nM.

**Q.** What about the IC50 ([2]; read-out: IC50 (U-937)) of the same molecule?
**A.** Its IC50 is 0.18 nM.

**Q.** And the IC50 (H460 (lung carcinoma); 72-hour exposure)?
**A.** The IC50 was 1.53 ± 0.85 nM.

**Q.** What about the IC50 (786-O (renal carcinoma); 72-hour exposure) of the same molecule?
**A.** Its IC50 is 1.55 ± 0.77 nM.

**Q.** What about the IC50 (MCF-7 (breast carcinoma); 72-hour exposure) of the same molecule?
**A.** Its IC50 is 1.65 ± 0.51 nM.

**Q.** What about the “anticancer activity, in words” value (human cancer cell lines) of the same molecule?
**A.** The value was “active across the board”.

**Q.** And the “potency relative to (+)-12,12′-dideoxyverticillin A (3)” value (human cancer cell lines; more potent than the corresponding secondary aniline 3)?
**A.** Its value is 2 orders of magnitude.

**Q.** What about the “induction of apoptosis (phosphatidylserine exposure / propidium iodide inclusion)” value (U-937 cells) of the same molecule?
**A.** Its value is “induce caspase-dependent apoptotic cell death; also recorded: induce apoptosis”.

**Q.** With `CN1C(=O)[C@@]23C[C@]4(c5c[nH]c6ccccc56)c5ccccc5N(S(=O)(=O)c5ccccc5)[C@@H]4N2C(=O)[C@@H]1S3` [Compound 25, C3-(Indol-3′-yl)epimonothiodiketopiperazine] as the molecule, how does the IC50 [1, 5] read?
**A.** The IC50 was 1480 ± 182 nM.

**Q.** And the IC50 [2, 6]?
**A.** The IC50 was 710 ± 134 nM.

**Q.** And the solubility [4]?
**A.** Its solubility is “Limited solubility”.

**Q.** For `CN1C(=O)[C@@]23C[C@]4([C@]56C[C@@]78SSS[C@@](CO)(C(=O)N7[C@H]5Nc5ccccc56)N(C)C8=O)c5ccccc5N[C@@H]4N2C(=O)[C@]1(CO)SSS3` [Compound 5, (+)-chaetocin C], which IC50 [1, 7] is on record?
**A.** The IC50 was 6.3 ± 0.6 nM.

**Q.** What about the IC50 [1, 8] of the same molecule?
**A.** The IC50 was 6.3 ± 0.6 nM.

**Q.** And the IC50 [2, 9]?
**A.** The IC50 was 0.75 ± 0.13 nM.

**Q.** And the IC50 [2, 10]?
**A.** Its IC50 is 0.75 ± 0.13 nM.

**Q.** What about the IC50 (H460 (lung carcinoma); 72-hour exposure) of the same molecule?
**A.** The IC50 was 26 ± 9.3 nM.

**Q.** What about the IC50 (786-O (renal carcinoma); 72-hour exposure) of the same molecule?
**A.** The IC50 was 14.6 ± 0.8 nM.

**Q.** What about the IC50 (MCF-7 (breast carcinoma); 72-hour exposure) of the same molecule?
**A.** The IC50 was 27 ± 11 nM.

**Q.** And the “anticancer activity, in words” value (human cancer cell lines)?
**A.** The value was “active across the board”.

**Q.** And the “induction of apoptosis (phosphatidylserine exposure / propidium iodide inclusion)” value (U-937 cells)?
**A.** Its value is “induce caspase-dependent apoptotic cell death; also recorded: induce apoptosis”.

**Q.** Which IC50 [1, 7] does the source give for `CN1C(=O)C23CC4(c5c[nH]c6ccccc56)c5ccccc5N(S(=O)(=O)c5ccccc5)C4N2C(=O)C1SS3` (centres unmarked) [Compound 26, C3-(Indol-3′-yl) epidithiodiketopiperazine] here?
**A.** The IC50 was 41.7 ± 5.7 nM.

**Q.** And the IC50 [1, 8]?
**A.** The IC50 was 41.7 ± 5.7 nM.

**Q.** What about the IC50 [2, 9] of the same molecule?
**A.** Its IC50 is 2.8 ± 0.3 nM.

**Q.** And the IC50 [2, 10]?
**A.** Its IC50 is 2.8 ± 0.3 nM.

**Q.** What about the IC50 (H460 (lung carcinoma); 72-hour exposure) of the same molecule?
**A.** Its IC50 is 66 ± 19 nM.

**Q.** And the IC50 (786-O (renal carcinoma); 72-hour exposure)?
**A.** Its IC50 is 62.7 ± 7.6 nM.

**Q.** And the IC50 (MCF-7 (breast carcinoma); 72-hour exposure)?
**A.** Its IC50 is 67 ± 19 nM.

**Q.** What about the “induction of apoptosis (phosphatidylserine exposure / propidium iodide inclusion)” value (U-937 cells) of the same molecule?
**A.** The value was “induce caspase-dependent apoptotic cell death; also recorded: induce apoptosis”.
